Data as given in US20230278972A1, “SUBSTITUTED HALOALKYL SULFONANILIDE HERBICIDES” (FMC Corporation, priority 2020, published 2023).

Experiments:
Format in all cases: in vivo
[1] = tested on: pigweed (Amaranthus retroflexus); test: Test A preemergence, pigweed; details: for Pigweed plant response rating: 125 g ai/ha, visual injury on 0 to 100 scale (0 no effect, 100 complete control), approximately 10 days; for Plant response rating, Pigweed: 500 g ai/ha, 0 to 100 scale (0 no effect, 100 complete control)
In short: (§1)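 After sowing into a sand-amended loam, pots for the preemergence test were treated by spraying directly onto soil. In parallel, seedlings at the one- to two-leaf stage and 2 to 10 cm tall were treated postemergence with the identical surfactant-containing formulation.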

[2] = tested on: Foxtail, Giant (giant foxtail, Setaria faberi); test: Test A postemergence, Foxtail, Giant; details: Postemergence, 0 to 100 scale (0 no effect, 100 complete control); for Plant response rating, Foxtail, Giant: 125 g ai/ha, visual injury approx. 10 days; for Foxtail, Giant plant response rating: 500 g ai/ha, visual injury vs untreated controls after approx. 10 days
In short: (§2)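 Pots: loam soil/sand blend. Pre: directed soil spray at planting. Post: plants 2–10 cm, 1–2 leaf stage. Formulation: non-phytotoxic solvent + surfactant.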

[3] = tested on: pigweed (Amaranthus retroflexus); test: Test A postemergence, pigweed; details: Postemergence, 0 to 100 scale (0 no effect, 100 complete control); for Plant response rating, Pigweed: 125 g ai/ha, visual injury approx. 10 days; for Pigweed plant response rating: 500 g ai/ha, visual injury vs untreated controls after approx. 10 days
In short: as §2

[4] = tested on: galium (catchweed bedstraw, Galium aparine); test: Test A postemergence, galium; details: Postemergence, 0 to 100 scale (0 no effect, 100 complete control); for Plant response rating, Galium: 125 g ai/ha, visual injury approx. 10 days; for Galium plant response rating: 500 g ai/ha, visual injury vs untreated controls after approx. 10 days
In short: as §1

[5] = tested on: wheat (Triticum aestivum); test: Test A postemergence, wheat; details: Postemergence, 0 to 100 scale (0 no effect, 100 complete control); for Plant response rating, Wheat: 125 g ai/ha, visual injury approx. 10 days; for Wheat plant response rating: 500 g ai/ha, visual injury vs untreated controls after approx. 10 days
In short: as §1

[6] = tested on: Ryegrass, Italian (Italian ryegrass, Lolium multiflorum); test: Test A preemergence, Ryegrass, Italian; details: Preemergence; for Ryegrass, Italian plant response rating: 125 g ai/ha, visual injury on 0 to 100 scale (0 no effect, 100 complete control), approximately 10 days; for Plant response rating, Ryegrass, Italian: 500 g ai/ha, 0 to 100 scale (0 no effect, 100 complete control)
In short: as §2

[7] = tested on: ragweed (common ragweed, Ambrosia artemisiifolia); test: Test A postemergence, ragweed; details: Postemergence, 0 to 100 scale (0 no effect, 100 complete control); for Plant response rating, Ragweed: 125 g ai/ha, visual injury approx. 10 days; for Ragweed plant response rating: 500 g ai/ha, visual injury vs untreated controls after approx. 10 days
In short: as §2

kochia (Bassia scoparia) [8] = test: Test A preemergence, kochia; details: Preemergence; for Kochia plant response rating: 125 g ai/ha, visual injury on 0 to 100 scale (0 no effect, 100 complete control), approximately 10 days; for Plant response rating, Kochia: 500 g ai/ha, 0 to 100 scale (0 no effect, 100 complete control)
In short: as §2

kochia (Bassia scoparia) [9] = test: Test A postemergence, kochia; details: Postemergence, 0 to 100 scale (0 no effect, 100 complete control); for Plant response rating, Kochia: 125 g ai/ha, visual injury approx. 10 days; for Kochia plant response rating: 500 g ai/ha, visual injury vs untreated controls after approx. 10 days
In short: as §2

[10] = tested on: blackgrass (Alopecurus myosuroides); test: Test A postemergence, blackgrass; details: Postemergence, 0 to 100 scale (0 no effect, 100 complete control); for Plant response rating, Blackgrass: 125 g ai/ha, visual injury approx. 10 days; for Blackgrass plant response rating: 500 g ai/ha, visual injury vs untreated controls after approx. 10 days
In short: as §2

[11] = tested on: barnyardgrass (Echinochloa crus-galli); test: Test A postemergence, barnyardgrass; details: Postemergence, 0 to 100 scale (0 no effect, 100 complete control); for Plant response rating, Barnyardgrass: 125 g ai/ha, visual injury approx. 10 days; for Barnyardgrass plant response rating: 500 g ai/ha, visual injury vs untreated controls after approx. 10 days
In short: as §1

[12] = tested on: Foxtail, Giant (giant foxtail, Setaria faberi); test: Test A preemergence, Foxtail, Giant; details: Preemergence; for Foxtail, Giant plant response rating: 125 g ai/ha, visual injury on 0 to 100 scale (0 no effect, 100 complete control), approximately 10 days; for Plant response rating, Foxtail, Giant: 500 g ai/ha, 0 to 100 scale (0 no effect, 100 complete control)
In short: as §2

[13] = tested on: Ryegrass, Italian (Italian ryegrass, Lolium multiflorum); test: Test A postemergence, Ryegrass, Italian; details: Postemergence, 0 to 100 scale (0 no effect, 100 complete control); for Plant response rating, Ryegrass, Italian: 125 g ai/ha, visual injury approx. 10 days; for Ryegrass, Italian plant response rating: 500 g ai/ha, visual injury vs untreated controls after approx. 10 days
In short: as §2

[14] = tested on: ragweed (common ragweed, Ambrosia artemisiifolia); test: Test A preemergence, ragweed; details: Preemergence; for Ragweed plant response rating: 125 g ai/ha, visual injury on 0 to 100 scale (0 no effect, 100 complete control), approximately 10 days; for Plant response rating, Ragweed: 500 g ai/ha, 0 to 100 scale (0 no effect, 100 complete control)
In short: as §2

[15] = tested on: barnyardgrass (Echinochloa crus-galli); test: Test A preemergence, barnyardgrass; details: Preemergence; for Barnyardgrass plant response rating: 125 g ai/ha, visual injury on 0 to 100 scale (0 no effect, 100 complete control), approximately 10 days; for Plant response rating, Barnyardgrass: 500 g ai/ha, 0 to 100 scale (0 no effect, 100 complete control)
In short: as §2

corn (Zea mays) = test: Test A postemergence, corn; details: Postemergence, 0 to 100 scale (0 no effect, 100 complete control); for Plant response rating, Corn: 125 g ai/ha, visual injury approx. 10 days; for Corn plant response rating: 500 g ai/ha, visual injury vs untreated controls after approx. 10 days
In short: as §2

SMILES	Pigweed plant response rating [1]	Plant response rating, Pigweed [1]	Plant response rating, Foxtail, Giant [2]	Foxtail, Giant plant response rating [2]	Plant response rating, Pigweed [3]	Pigweed plant response rating [3]	Plant response rating, Galium [4]	Galium plant response rating [4]	Plant response rating, Wheat [5]	Wheat plant response rating [5]	Ryegrass, Italian plant response rating [6]	Plant response rating, Ryegrass, Italian [6]	Plant response rating, Ragweed [7]	Ragweed plant response rating [7]	Kochia plant response rating (kochia (Bassia scoparia) [8])	Plant response rating, Kochia (kochia (Bassia scoparia) [8])	Plant response rating, Kochia (kochia (Bassia scoparia) [9])	Kochia plant response rating (kochia (Bassia scoparia) [9])	Plant response rating, Blackgrass [10]	Blackgrass plant response rating [10]	also measured
CCCn1nccc(-c2cc(NS(=O)(=O)C(F)(F)F)c(C)cc2C)c1=O [Compound 58]	0	50	30	90	0	0	80	90	20	70	70	100	0	20	0	80	0	20	0	30	Plant response rating, Barnyardgrass [11]: 20; Barnyardgrass plant response rating [11]: 90; Foxtail, Giant plant response rating [12]: 100; Plant response rating, Foxtail, Giant [12]: 100; Plant response rating, Ryegrass, Italian [13]: 0; Ryegrass, Italian plant response rating [13]: 60; Ragweed plant response rating [14]: 0; Plant response rating, Ragweed [14]: 0; Barnyardgrass plant response rating [15]: 100; Plant response rating, Barnyardgrass [15]: 100; Plant response rating, Corn (corn (Zea mays)): 20; Corn plant response rating (corn (Zea mays)): 50
Cc1cc(C)c(N(S(=O)(=O)C(F)(F)F)S(=O)(=O)C(F)(F)F)cc1-c1cc(Br)nn(C)c1=O [Compound 67]	50	80	10	70	30	80	50	60	30	60	80	90	0	10	0	70	10	40	0	60	Plant response rating, Barnyardgrass [11]: 0; Barnyardgrass plant response rating [11]: 40; Foxtail, Giant plant response rating [12]: 90; Plant response rating, Foxtail, Giant [12]: 100; Plant response rating, Ryegrass, Italian [13]: 0; Ryegrass, Italian plant response rating [13]: 60; Ragweed plant response rating [14]: 0; Plant response rating, Ragweed [14]: 60; Barnyardgrass plant response rating [15]: 70; Plant response rating, Barnyardgrass [15]: 100; Plant response rating, Corn (corn (Zea mays)): 0; Corn plant response rating (corn (Zea mays)): 0
Cc1cc(C)c(C2=NOC3CCCCC23)cc1NS(=O)(=O)C(F)(F)F (stereo not drawn) [Compound 123]	90	100	30	80	60	80	80	90	50	60	90	100	50	70	40	80	50	70	20	50	Plant response rating, Barnyardgrass [11]: 90; Barnyardgrass plant response rating [11]: 90; Foxtail, Giant plant response rating [12]: 100; Plant response rating, Foxtail, Giant [12]: 100; Plant response rating, Ryegrass, Italian [13]: 50; Ryegrass, Italian plant response rating [13]: 50; Ragweed plant response rating [14]: 50; Plant response rating, Ragweed [14]: 80; Barnyardgrass plant response rating [15]: 100; Plant response rating, Barnyardgrass [15]: 100; Plant response rating, Corn (corn (Zea mays)): 10; Corn plant response rating (corn (Zea mays)): 70
